The test system of data set [1] is H441. As to the kind of experiment: MTS tetrazolium salt cytotoxicity assay. Format: cell-based, human. As to conditions: 12 hrs. Here is the method:
Hep3B was incubated in Dulbecco's Modified Eagle's medium (DMEM), while H441 and MCF-7 were incubated in RPMI-1640, both of the media containing 10% fetal bovine serum and 40 mg/L gentamycin.
The cytotoxicity of cancer cells was determined using tetrazolium salt assay (MTS, Mosmann. T., 1983, Immunol. Meth., 65, 55–63), which was conducted for the calorimetric determination of cell viability according to the manufacturer's procedures (CellTiter 96™ AQ, Promega, Madison, USA).
Cells were seeded at 1×10^4 cells/well in a 96-well plate and incubated in 5% CO2 incubator at 37° C. for at least 16 hrs. The water-soluble extract from Solanum incanum L. was dissolved in sterile injection water to give different test concentrations, which were added to each cancer-cell incubating medium in the well, and allowed to react for 12 hrs. 20 μl MTS was then added to each well, and the solution was allowed to react for 3 hrs. Upon completion of the reaction, absorbency in each well was determined at 490 nm by using ELISA reader 312e, Bio-TEK. Each value was expressed as means ±SD from three experiments.
Cytotoxicity was determined by MTS tetrazolium salt assay disclosed in Pharmacological assay 1. […] Data were expressed as means ±SD from three experiments.

Data set [2] can be described thus: dissolving in water. The format is physicochemical.
[3] abbreviates: dried powders, without being pre-treated with DMSO.
The mark [4] stands for this setting: purified from the water-soluble extract by HPLC.

2 molecules from US7078063B2, “Water soluble extract from plant of Solanum genus and the preparation process thereof, and pharmaceutical composition containing the water soluble extract” (G & E Herbal Biotechnology Co., LTD., priority 2003, dated 2006) can be followed below.

As for `C[C@@H]1CC[C@@]2(NC1)O[C@H]1C[C@H]3[C@@H]4CC=C5C[C@@H](O[C@@H]6O[C@H](CO)[C@@H](O[C@@H]7O[C@@H](C)[C@H](O)[C@@H](O)[C@H]7O)[C@H](O)[C@H]6O[C@@H]6O[C@@H](C)[C@H](O)[C@@H](O)[C@H]6O)CC[C@]5(C)[C@H]4CC[C@]3(C)[C@H]1[C@@H]2C` [solamargine], in data set [1], the “inhibiting the growth of H441” value is reported as “effectively inhibited”. Also, the results for the dissolving in water entry in data set [2] (setting [3]) and in data set [2] (setting [4]) were “could not dissolve in water” and “directly dissolved in water”, respectively.

As to `C[C@@H]1CC[C@@]2(NC1)O[C@H]1C[C@H]3[C@@H]4CC=C5C[C@@H](O[C@@H]6O[C@H](CO)[C@H](O)[C@H](O[C@@H]7O[C@H](CO)[C@@H](O)[C@H](O)[C@H]7O)[C@H]6O[C@@H]6O[C@@H](C)[C@H](O)[C@@H](O)[C@H]6O)CC[C@]5(C)[C@H]4CC[C@]3(C)[C@H]1[C@@H]2C` [solasonine], the “inhibiting the growth of H441” value in data set [1] is given as “effectively inhibited”. Also, the dissolving in water result in data set [2] (setting [3]) is reported as “could not dissolve in water”; in data set [2] (setting [4]) it was “directly dissolved in water”.
